# Test system: LPS-induced iNOS-dependent NO production
# Assay: LPS-induced NO production
# Type: cell-based, murine
# Conditions: Mus musculus, read-out: IC50 (µM) in NOS
row,Structure (SMILES),IC50 [µM]
1,"COc1cc(C)c(OC)c2c1OCO2 [Compound 8, 4,7-dimethoxy-5-methyl-1,3-benzodioxole]",29.1 ± 4.4
2,"C=C(CC[C@@H](C)[C@H]1CC[C@H]2C3=C(C(=O)C[C@]12C)[C@@]1(C)CC[C@@H](O)[C@](C)(O)[C@@H]1C[C@@H]3O)C(C)C(=O)O (stereo partly shown) [Compound 32, antcin K]",> 50
3,"CC(C)[C@@H](C)/C=C/[C@@H](C)[C@H]1CC[C@@H]2[C@]1(C)CC[C@H]1[C@]23C=C[C@]2(C[C@@H](O)CC[C@]12C)OO3 [Compound 37, ergosterol peroxide]",6.3 ± 1.8
4,"C=C(C)C#Cc1c(C)c(OC)c(OC)c2c1OCO2 [Compound 2, Benzocamphorin B]",12.1

# — publication PMC3014437 (Bioorganic & medicinal chemistry, 2010)
